Test system: IMQ-induced mouse model of lupus
Test: IMQ-induced mouse model of lupus, LA1 co-treatment i.p.
Format: in vivo, wild type C57BL/6 mice
Conditions: IMQ cream 8 weeks
Experimental: FIG. 8A illustrates an experimental timeline for the measurement of suPAR levels, albumin creatinine ratios (ACR), anti-dsDNA antibody levels, and spleen size in wild type mouse models treated with IMQ, LA1, or IMO and LA1 co-treatment.
FIG. 8B illustrates levels of biomarker suPAR in the blood and urine of wild type mice (WT), mice treated with IMQ, mice co-treated with IMQ and vehicle DMSO or mice co-treated with IMQ and LA1 (2 mg/kg i.p. daily). Each dot represents a unique sample. Bars show mean +/−SEM (n=5).
FIG. 8C illustrates the albumin creatinine ratios (ACR) in the blood and urine of wild type mice (WT), mice treated with IMQ, mice co-treated with IMQ and vehicle DMSO or mice co-treated with IMQ and LA1 (2 mg/kg i.p. daily). Each dot represents a unique sample. Bars show mean +/−SEM (n=5).
FIG. 8D illustrates levels of anti-dsDNA antibodies in the blood and urine of wild type mice (WT), mice treated with IMQ, mice co-treated with IMQ and vehicle DMSO, or mice co-treated with IMQ and LA1 (2 mg/kg i.p. daily). Each dot represents a unique sample. Bars show mean +/−SEM (n=5).
FIG. 8E illustrates spleen size (mm) and weight (g) of wild type mice (WT), mice treated with IMQ, mice co-treated with IMQ and vehicle DMSO, or mice co-treated with IMQ and LA1. Each dot represents a unique sample. Bars show mean +/−SEM (n=5).
To investigate efficacy of LA1 as a therapeutic for SLE and autoimmune diseases in vivo, an IMQ-induced mouse model of lupus (Yokogawa et al, 2014) was used. Imiquimod (IMQ), a known TLR7 stimulant, was used to induce disease in wild type mice. Briefly, wild type C57BL/6 mice (WT) were treated topically with IMQ cream (Aldara) over the course of 8 weeks, as shown in the timeline of FIG. 8A, a group was also co-treated intraperitoneally with LA1 or vehicle DMSO. Blood and urine were collected for analysis of inflammatory cytokines and proteinuria over the course of treatment. […] Additionally, spleen size and weight were recorded.

[1] = co-treated with LA1 2 mg/kg i.p. daily, vs IMQ

O=C(O)c1ccc(-c2ccc(/C=C3\SC(=S)N(Cc4ccccc4)C3=O)o2)cc1 [LA1, (Z)-4-(5-((3-benzyl-4-oxo-2-thioxothiazolidin-5-ylidene)methyl)furan-2-yl)benzoic acid]
spleen size (co-treated with LA1): reduced | spleen weight (co-treated with LA1): reduced | albumin creatinine ratios (ACR) [1]: significantly reduced | levels of anti-dsDNA antibodies [1]: significantly reduced | levels of suPAR [1]: significantly reduced
